The source of these data is ChEMBL document CHEMBL1201862, “PubChem BioAssay data set” (2004).

Holding throughout (assay): NCI anticancer screen, dose series, 48 h
Test [1] has as its system Hs-578T.
Test [2] concerns K562.
Test [3] relates to HOP-92.
The subject of test [4] is HOP-62.
Test [5] concerns SK-MEL-28.
The subject of test [6] is DU-145.
For test [7], the system named is EKVX.
The subject of test [8] is BT-549.
Test [9] has as its system CAKI-1.
The subject of test [10] is PC-3.
The test system of test [11] is MDA-MB-435.
Test [12] concerns A549.
The test system of test [13] is RPMI-8226.
The subject of test [14] is SNB-75.
Test [15] concerns COLO 205.
Test [16] concerns T47D.
Test [17] deals with UO-31.
Test [18] relates to ACHN.
Test [19] deals with MDA-MB-231.
Test [20] has as its system SR.

SMILES strings stand for the structures.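 Compound exposure: 48 hours, 5 concentrations, 96-well plates. At the GI50, growth is halved.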 Calls of active or inactive are those of the source. Rule as the data show it: active = GI50 up to about 1.1 µM and inactive = higher.

`Cc1nc2nc3c(ncn3COCCO)c(O)n2c1C(c1ccccc1)(c1ccccc1)c1ccccc1`: the GI50 in test [1] was 21.2 µM (inactive); in [2], 9.25 µM (inactive); in test [3], 16.7 µM (inactive); in [4], 18.6 µM (inactive); in test [5] it was 20 µM (inactive); in test [6] it was 12.5 µM (inactive). Also, the GI50 is 19.4 µM (inactive) in test [7]; 0.6 µM (active) in [8]; 60 µM (inactive) in [9]; 12.9 µM (inactive) in [10]; 10.9 µM (inactive) in test [11]; 18.5 µM (inactive) in test [12]. In addition, the GI50 in test [13] is 12 µM (inactive); in [14], 12.8 µM (inactive); in test [15] it was 14.6 µM (inactive); in test [16] it was 9.27 µM (inactive); in [17], 30.3 µM (inactive); in [18], 18 µM (inactive). For the same compound, the GI50 in test [19] is 14.5 µM (inactive).

In the case of `COc1cccc(/C=C/c2ccnc3ccccc23)c1OC`, the GI50 in test [1] was > 10 µM (inactive); in test [2], 4.7 µM (inactive); in test [3] it was 1.08 µM (active); in [4], > 10 µM (inactive); in test [5] it was > 10 µM (inactive); in test [6], > 10 µM (inactive). Moreover, the GI50 in test [7] was 9.66 µM (inactive); in test [8], > 10 µM (inactive); in test [9], > 10 µM (inactive); in test [10], > 10 µM (inactive); in test [11], 2.86 µM (inactive); in [12], > 10 µM (inactive). In addition, the GI50 in test [13] is 2.27 µM (inactive); in test [14], > 10 µM (inactive); in test [15] it was > 10 µM (inactive); in test [16] it was 8.17 µM (inactive); in test [17], > 10 µM (inactive); in [18], > 10 µM (inactive). Further, the GI50 in test [19] is > 10 µM (inactive).

As to `Cn1c2n/c(=N\c3ccc(Cl)cc3)[n+]3ccc4ccccc4c3c-2c([O-])n1-c1ccccc1`, the GI50 in [1], in test [2], in test [4], in test [5], in [20] and in test [6] was > 100 µM (inactive) throughout. In addition, the GI50 in [7] was > 100 µM (inactive); in test [8], > 100 µM (inactive); in test [9] it was 46.3 µM (inactive); in test [10], > 100 µM (inactive); in test [11] it was > 100 µM (inactive); in test [13] it was > 100 µM (inactive). For the same compound, the GI50 in [14], in test [15], in [16], in test [17], in test [18] and in test [19] was > 100 µM (inactive) each time.

Regarding `Fc1cc(C2=Nn3c(CNc4ccc(Cl)cc4)nnc3S/C2=C\c2ccc(-c3ccc(Cl)cc3)o2)c(Cl)cc1Cl`, the GI50 is 46.7 µM (inactive) in [1]; 11.9 µM (inactive) in test [2]; 21.8 µM (inactive) in test [4]; 67 µM (inactive) in test [5]; 29.6 µM (inactive) in [20]; 65 µM (inactive) in [6]. Also, the GI50 in [7] was 7.52 µM (inactive); in test [8], > 100 µM (inactive); in test [9], 23.6 µM (inactive); in test [10], 14.9 µM (inactive); in [11], 68.5 µM (inactive); in test [12] it was 35.6 µM (inactive). The GI50 in test [13] was 23.2 µM (inactive); in [15], 14.3 µM (inactive); in test [16] it was 41.7 µM (inactive); in test [17] it was 11.8 µM (inactive); in test [18] it was 34.9 µM (inactive); in test [19] it was 10.2 µM (inactive).

Take `CN(C)C(=C1c2cc([N+](=O)[O-])ccc2-c2ccc([N+](=O)[O-])cc21)N(C)C`: the GI50 was > 100 µM (inactive) in test [1]; > 100 µM (inactive) in test [2]; > 100 µM (inactive) in test [4]; > 100 µM (inactive) in [5]; 2.37 µM (inactive) in test [20]; > 100 µM (inactive) in test [6]. Moreover, the GI50 in test [7] is > 100 µM (inactive); in [8] it was > 100 µM (inactive); in test [9], 5.93 µM (inactive); in [10], > 100 µM (inactive); in test [11], > 100 µM (inactive); in test [12], > 100 µM (inactive). The GI50 in test [13] is 3.32 µM (inactive); in [14], > 100 µM (inactive); in test [15], > 100 µM (inactive); in test [16], 4.11 µM (inactive); in test [17], 56.2 µM (inactive); in [18], > 100 µM (inactive). Besides, in [19], the GI50 is > 100 µM (inactive).

Consider `CCCCOC(=O)C1CC[C@H]2[C@@H]3CCc4cc(OC(=O)c5cccc6c(=O)c7ccccc7[nH]c56)ccc4[C@H]3CC[C@]12C` (stereo partly specified), for which the GI50 is 12.9 µM (inactive) in test [1]; 9.98 µM (inactive) in test [2]; 8.3 µM (inactive) in [3]; 9.35 µM (inactive) in test [4]; 11 µM (inactive) in test [5]; 8.17 µM (inactive) in test [6]. Also, the GI50 in [7] is 2.48 µM (inactive); in test [8] it was 8.17 µM (inactive); in test [9], 7.19 µM (inactive); in test [10] it was 8.71 µM (inactive); in [11], 8.63 µM (inactive); in test [12], 9.35 µM (inactive). Moreover, the GI50 in test [13] is 9.06 µM (inactive); in [14] it was 10.4 µM (inactive); in [15], 7.29 µM (inactive); in [16], 7.33 µM (inactive); in test [17] it was 8.17 µM (inactive); in test [18], 8.69 µM (inactive). Also, the GI50 in test [19] is 6.98 µM (inactive).

For `COc1cc2c(c(OC)c1OC)-c1cccc(=O)cc1C(NC(C)=O)CC2` (stereo unspecified), the GI50 is > 100 µM (inactive) in [1]; 0.0335 µM (active) in [2]; 0.0863 µM (active) in [3]; 0.172 µM (active) in [4]; 2.15 µM (inactive) in [5]; 0.0624 µM (active) in test [6]. For the same compound, the GI50 in test [7] is > 100 µM (inactive); in test [8], 0.437 µM (active); in [9], 0.211 µM (active); in test [10], 0.0152 µM (active); in [11], < 0.01 µM (active); in test [12] it was 0.317 µM (active). Besides, the GI50 is 0.0267 µM (active) in [13]; 0.0391 µM (active) in [14]; 0.054 µM (active) in test [15]; > 100 µM (inactive) in test [16]; 4.93 µM (inactive) in test [17]; 0.953 µM (active) in [18]. In test [19], the GI50 is 0.139 µM (active).

As for `COP(=O)(O)/C=C/C(NC(=O)C(Cl)(Cl)Cl)c1ccccc1` (stereo unspecified), the GI50 in test [1], in test [2], in test [3], in [4], in test [5] and in test [6] was > 100 µM (inactive) each time. In addition, the GI50 in [7], in test [8], in [9], in test [10], in test [11] and in [12] was > 100 µM (inactive) in each case. For the same compound, the GI50 in test [13], in test [14], in test [15], in test [16], in test [17] and in [18] was > 100 µM (inactive) each time. In addition, in [19], the GI50 was > 100 µM (inactive).

Consider `CSC[C@H](NC(=O)COc1cccc2cnccc12)C(=O)NC(Cc1ccccc1)C(O)C(=O)N1CSC[C@H]1C(=O)NC(C)(C)C` (stereo partly specified), for which the GI50 is 89.3 µM (inactive) in test [1]; 32.5 µM (inactive) in test [2]; > 100 µM (inactive) in [4]; 78.2 µM (inactive) in [5]; 36.8 µM (inactive) in test [20]; 42.8 µM (inactive) in [6]. Further, the GI50 in test [8] is > 100 µM (inactive); in [10], 24 µM (inactive); in test [11], 87.5 µM (inactive); in [12], 32.4 µM (inactive); in test [13], 23.6 µM (inactive); in [14], 78.9 µM (inactive). Also, the GI50 was 27.5 µM (inactive) in test [15]; 36.6 µM (inactive) in [16]; 86.3 µM (inactive) in [17]; 24.4 µM (inactive) in [18]; > 100 µM (inactive) in [19].

On to `CN(C)Cc1cc(C(=O)/C=C/c2c(F)cccc2Cl)cc(CN(C)C)c1O`, for which the GI50 is 17.5 µM (inactive) in test [1]; 4.09 µM (inactive) in [2]; 7.52 µM (inactive) in test [3]; 12 µM (inactive) in test [4]; 14.5 µM (inactive) in test [5]; 8.77 µM (inactive) in [6]. Further, the GI50 in test [7] was 12.8 µM (inactive); in test [8], 8.2 µM (inactive); in test [9], 11.5 µM (inactive); in test [10], 13.7 µM (inactive); in [11], 13.8 µM (inactive); in [12], 14.3 µM (inactive). The GI50 in test [13] is 17.2 µM (inactive); in test [14], 8.53 µM (inactive); in [15], 10.8 µM (inactive); in test [16], 14.9 µM (inactive); in test [17] it was 3.7 µM (inactive); in test [18], 3.9 µM (inactive). The GI50 in test [19] was 13.1 µM (inactive).
